In patent US9637469B2, “Pyridine derivative” (Teijin Pharma Limited, priority 2012, dated 2017):

target: T1, human URAT1 (Homo sapiens, UniProt Q96S37); assay: Test for inhibition of uric acid transport using human URAT1-expressing cells;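 also: three stars up to 0.2 µM two stars 0.2-2 µM one star 2-20 µM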; type: cell-based; conditions: HEK 293 cells expressing human URAT1; 14C-labeled uric acid 25 μM; uptake 37° C. for 5 min
T1 construct: Full-length cDNA of human URAT1 (hURAT1)
T1 sequence (Q96S37 1-553): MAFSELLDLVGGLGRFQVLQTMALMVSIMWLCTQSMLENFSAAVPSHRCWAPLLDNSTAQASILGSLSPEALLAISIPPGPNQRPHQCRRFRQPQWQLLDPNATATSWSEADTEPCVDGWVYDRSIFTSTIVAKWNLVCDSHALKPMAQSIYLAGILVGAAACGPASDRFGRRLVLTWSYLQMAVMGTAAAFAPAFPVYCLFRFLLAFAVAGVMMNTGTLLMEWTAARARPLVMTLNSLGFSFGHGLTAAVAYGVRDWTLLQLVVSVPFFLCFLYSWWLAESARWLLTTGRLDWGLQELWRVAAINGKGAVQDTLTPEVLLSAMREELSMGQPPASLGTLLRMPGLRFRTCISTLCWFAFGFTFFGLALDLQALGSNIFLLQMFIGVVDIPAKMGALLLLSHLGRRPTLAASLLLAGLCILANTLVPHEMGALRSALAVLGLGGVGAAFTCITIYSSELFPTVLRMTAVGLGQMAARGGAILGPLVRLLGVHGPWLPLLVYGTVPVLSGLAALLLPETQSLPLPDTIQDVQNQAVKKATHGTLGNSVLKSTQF
In short: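 IC50 values reflect inhibition of ¹⁴C-uric acid uptake (25 μM final, 5 min, 37 °C) by compound. Cells were HEK293 stably expressing full-length human URAT1, preincubated in Na-gluconate-substituted HBSS. Radioactivity in lysates was expressed relative to DMSO control as 100%.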

Row | SMILES | Inhibitory Activity (IC50 of uric acid transport inhibition)
1 | O=C(O)c1c(C(F)(F)F)nc(-c2cncc(C(F)(F)F)c2)n1Cc1cc(Cl)ccc1Cl [Compound A140, 1-(2,5-dichlorobenzyl)-4-(trifluoromethyl)-2-(5-(trifluoromethyl)pyridin-3-yl)-1H-imidazole-5-carboxylic acid] | * * *
2 | Cc1nc(-c2cncc(Cl)c2)n(Cc2sc(Cl)cc2Cl)c1C(=O)O [Compound A229, 2-(5-chloropyridin-3-yl)-1-((2,4-dichlorothiophen-5-yl)methyl)-4-methyl-1H-imidazole-5-carboxylic acid] | * *
3 | O=C(O)c1c(C(F)(F)F)nc(-c2cccnc2)n1Cc1cccc2ccsc12 [Compound A84, 1-(benzo[b]thiophen-7-ylmethyl)-2-(pyridin-3-yl)-4-(trifluoromethyl)-1H-imidazole-5-carboxylic acid] | * *
4 | O=C(O)c1c(C2CC2)nc(-c2cccnc2)n1Cc1csc2ccccc12 [Compound A36, 1-(benzo[b]thiophen-3-ylmethyl)-4-cyclopropyl-2-(pyridin-3-yl)-1H-imidazole-5-carboxylic acid] | * *
5 | CC(O)c1nc(-c2cncc(Cl)c2)n(Cc2cc(Cl)ccc2Cl)c1C(=O)O (centres unmarked) [Compound A211, 2-(5-chloropyridin-3-yl)-1-(2,5-dichlorobenzyl)-4-(1-hydroxyethyl)-1H-imidazole-5-carboxylic acid] | * * *
6 | O=C(O)c1c(C2CC2)nc(-c2cncc(Cl)c2)n1Cc1cccc2ccsc12 [Compound A236, 1-(benzo[b]thiophen-7-ylmethyl)-2-(5-chloropyridin-3-yl)-4-cyclopropyl-1H-imidazole-5-carboxylic acid] | * * *
7 | Cc1nc(-c2cncc(Cl)c2)n(C(C)c2cc(Cl)ccc2Cl)c1C(=O)O (centres unmarked) [Compound A223, 2-(5-chloropyridin-3-yl)-1-(1-(2,5-dichlorophenyl)ethyl)-4-methyl-1H-imidazole-5-carboxylic acid] | * *
8 | CCOC(=O)c1c(C)nc(-c2cccnc2)n1Cc1cccc2ccccc12 [Compound A3, ethyl 4-methyl-1-(naphthalen-1-ylmethyl)-2-(pyridin-3-yl)-1H-imidazole-5-carboxylate] | * *
9 | COc1cncc(-c2nc(C)c(C(=O)O)n2Cc2cc(Cl)ccc2Cl)c1 [Compound A157, 1-(2,5-dichlorobenzyl)-2-(5-methoxypyridin-3-yl)-4-methyl-1H-imidazole-5-carboxylic acid] | * * *
10 | CC(C)c1nc(-c2cccnc2)n(Cc2csc3cccc(C(F)(F)F)c23)c1C(=O)O [Compound A39, 4-isopropyl-2-(pyridin-3-yl)-1-((4-(trifluoromethyl)benzo[b]thiophen-3-yl)methyl)-1H-imidazole-5-carboxylic acid] | * * *
11 | Clc1cncc(-c2ncc(-c3nnn[nH]3)n2Cc2cc(Cl)ccc2Cl)c1 [Compound A237, 3-chloro-5-(1-(2,5-dichlorobenzyl)-5-(1H-tetrazol-5-yl)-1H-imidazol-2-yl)pyridine] | * * *
12 | Clc1ccc(Cl)c(Cn2c(-c3nnn[nH]3)cnc2-c2cccnc2)c1 [Compound A110, 3-(1-(2,5-dichlorobenzyl)-5-(1H-tetrazol-5-yl)-1H-imidazol-2-yl)pyridine] | * *
13 | Cc1nc(Oc2cnccc2Cl)n(Cc2cc(Cl)ccc2Cl)c1C(=O)O [Compound A257, 2-((4-chloropyridin-3-yl)oxy)-1-(2,5-dichlorobenzyl)-4-methyl-1H-imidazole-5-carboxylic acid] | * * *
14 | Cc1nc(-c2cccnc2)n(Cc2cc(Cl)cc(Cl)c2)c1C(=O)O [Compound A71, 1-(3,5-dichlorobenzyl)-4-methyl-2-(pyridin-3-yl)-1H-imidazole-5-carboxylic acid] | * * *
15 | O=C(O)/C=C/c1ccc(-c2cccnc2)n1Cc1cccc2ccccc12 [Compound B33, (E)-3-(1-(naphthalen-1-ylmethyl)-2-(pyridin-3-yl)-1H-pyrrole-5-yl)acrylic acid] | * * *
16 | Cc1nc(-c2cncc(Oc3ccccc3)c2)n(Cc2cccc3ccccc23)c1C(=O)O [Compound A130, 4-methyl-1-(naphthalen-1-ylmethyl)-2-(5-phenoxypyridin-3-yl)-1H-imidazole-5-carboxylic acid] | * *
17 | O=C(O)c1ccc(-c2cncc(F)c2)n1Cc1cccc2ccsc12 [Compound B22, 1-(benzo[b]thiophen-7-ylmethyl)-2-(5-fluoropyridin-3-yl)-1H-pyrrole-5-carboxylic acid] | * * *
18 | O=C(O)c1c(C2CC2)nc(-c2cccnc2)n1Cc1csc2cccc(Br)c12 [Compound A34, 1-((4-bromobenzo[b]thiophen-3-yl)methyl)-4-cyclopropyl-2-(pyridin-3-yl)-1H-imidazole-5-carboxylic acid] | * *
19 | CC(C)c1nc(-c2cncc(F)c2)n(Cc2cc(Cl)ccc2Cl)c1C(=O)O [Compound A154, 1-(2,5-dichlorobenzyl)-2-(5-fluoropyridin-3-yl)-4-isopropyl-1H-imidazole-5-carboxylic acid] | * * *
20 | CCC(O)(CC)c1nc(-c2cncc(F)c2)n(Cc2cc(Cl)ccc2Cl)c1C(=O)O [Compound A215, 1-(2,5-dichlorobenzyl)-2-(5-fluoropyridin-3-yl)-4-(3-hydroxypentan-3-yl)-1H-imidazole-5-carboxylic acid] | * * *
21 | Cc1nc(-c2cccnc2)n(Cc2cc(Cl)ccc2F)c1C(=O)O [Compound A42, 1-(5-chloro-2-fluorobenzyl)-4-methyl-2-(pyridin-3-yl)-1H-imidazole-5-carboxylic acid] | * *
22 | Cc1cncc(-c2nc(C)c(C(=O)O)n2Cc2cc(Cl)sc2Cl)c1 [Compound A227, 1-((2,5-dichlorothiophen-3-yl)methyl)-4-methyl-2-(5-methylpyridin-3-yl)-1H-imidazole-5-carboxylic acid] | * * *
23 | O=C(O)c1c(Cl)nc(-c2cccnc2)n1Cc1cccc2ccccc12 [Compound A9, 4-chloro-1-(napthalen-1-ylmethyl)-2-(pyridin-3-yl)-1H-imidazole-5-carboxylic acid] | * *
24 | O=C(O)c1ccc(-c2cccnc2)n1Cc1csc2ccccc12 [Compound B8, 1-(benzo[b]thiophen-3-ylmethyl)-2-(pyridin-3-yl)-1H-pyrrole-5-carboxylic acid] | * * *
25 | O=C(O)c1ccc(-c2cccnc2)n1Cc1csc2cccc(C(F)(F)F)c12 [Compound B9, 2-(pyridin-3-yl)-1-((4-(trifluoromethyl)benzo[b]thiophen-3-yl)methyl)-1H-pyrrole-5-carboxylic acid] | * * *
26 | Cc1nc(-c2cncc(N3CCCC3)c2)n(Cc2cc(Cl)ccc2Cl)c1C(=O)O [Compound A166, 1-(2,5-dichlorobenzyl)-4-methyl-2-(5-(pyrrolidin-1-yl)pyridin-3-yl)-1H-imidazole-5-carboxylic acid] | * * *

same assay, conditions: HEK 293 cells expressing human URAT1; 14C-labeled uric acid 25 μM; uptake 37° C. for 5 min; read-out: Inhibitory Activity (IC50 of uric acid transport inhibition)

Row | SMILES | IC50
27 | Cc1nc(-c2cccnc2)n(Cc2cccc(Cl)c2)c1C(=O)O [Compound A52] | 2 to 20 µM
28 | COc1ccccc1Oc1cncc(-c2nc(C)c(C(=O)O)n2Cc2cccc3ccccc23)c1 [Compound A131] | 2 to 20 µM
29 | Cc1nc(-c2cccnc2)n(Cc2cccc(OC(F)(F)F)c2)c1C(=O)O [Compound A63] | 2 to 20 µM
30 | Cc1nc(-c2cccnc2)n(Cc2cc(Cl)ccc2Cl)c1C(=O)NS(=O)(=O)C1CC1 [Compound A112] | 2 to 20 µM
31 | CC(C)(Sc1cnc(-c2cccnc2)n1Cc1cc(Cl)ccc1Cl)C(=O)O [Compound A261] | 2 to 20 µM
32 | Cc1nc(-c2ccccn2)n(Cc2cccc3ccccc23)c1C(=O)O [Compound A243] | 2 to 20 µM
33 | Cc1nc(-c2cnc3ccccc3c2)n(Cc2cccc3ccccc23)c1C(=O)O [Compound A66] | 2 to 20 µM
34 | Cc1nc(-c2cccnc2)n(Cc2ccccc2Cl)c1C(=O)O [Compound A51] | 2 to 20 µM
35 | O=C(O)c1cnc(-c2cccnc2)n1Cc1cccc2ccccc12 [Compound A12] | 2 to 20 µM
